# Experiments:
# [1] = system: ALS model mice (G93A SOD1 transgenic mouse); experiment: Oral administration test for NAC in ALS model mice (Rota-Rod motor function, survival time); format: in vivo; details: oral administration from 15 weeks of age, vs water-administered group
# Text: NAC is considered to be effective for treating ALS as a result of its effect of removing active oxygen. Thus, NAC was used as a test drug for ALS treatment.
# As a test animal, G93A SOD1 transgenic mouse (G93A), which is one of the ALS model animals, was used. […] The research group of the present inventors has already reported the characteristics of the change (progression) in the motor dysfunction of this G93A (Miyagisi H et al., J Pharmacol Sci., 118, 225-236 (2012)).
# NAC was orally administered to G93A from 15 weeks of age (105 days of age) after the onset of ALS, and the motor function and the survival time were examined. Water was orally administered as a negative control.
# The motor function was evaluated using Rota-Rod (Muromachi Kikai Co., Ltd.). in order to acclimatize mice to Rota-Rod, mice were trained from 3 weeks (12 weeks of age) before the day of measurement initiation. The rotation speed of Rota-Rod was set to 24 times/minute. The measurement was performed twice a week, and the time (seconds) taken until the mouse fell from Rota-Rod was measured. The cut-off value was set to 300 seconds, while in the case of falling, the average value of three times was used as the score for that day, and measurements were taken up to 133 days after birth.
# ALS model mice (G93A) = experiment: Nasal administration test for NAC/PEG-PCL-Tat in ALS model mice (Rota-Rod motor function); format: in vivo, mouse; details: nasal administration 105 to 120 days of age, 5 days a week; compared with untreated
# Experimental: A drug solution was prepared by dissolving NAC in HEPES buffer solution (pH 7.4) at a concentration of 50 mg/mL.
# The drug solution was administered to G93A for a period from 105 days of age (15 weeks of age) after birth to 120 days of age, at a frequency of 5 days a week. […] Under inhalation anesthesia using a mask in which the vicinity of the nostrils could be opened or closed, 2 μL each of the drug solution was alternately administered to the right and left nasal cavities every 30 seconds using a micropipette (see FIG. 3). Only male mice were used for the test, and in principle, administration was performed in the morning (10:00 to 12:00).
# The motor function was evaluated using Rota-Rod (Muromachi Kikai Co., Ltd.). In order to acclimatize mice to Rota-Rod, mice were trained from 3 weeks (12 weeks of age) before the day of measurement initiation. The rotation speed of Rota-Rod was set to 24 times/minute. The measurement was performed twice a week, and the time (seconds) taken until the mouse fell from Rota-Rod was measured. The cut-off value was set to 300 seconds, while in the case of falling, the average value of three times was used as the score for that day, and measurements were taken up to 122 days after birth.
structure (smiles),measurement,setting,value
"CC(=O)N[C@@H](CS)C(=O)O [NAC, N-Acetyl-Cysteine]",motor function (Rota-Rod),[1],no difference
same,survival time,[1],no difference
same,"suppression of hypanakinesia (Rota-Rod, FIG. 4A)",ALS model mice (G93A),hypanakinesia was suppressed
